Source: patent US20080145465A1, “Sesquiterpene lactone extract from artemisia leucodes for reducing inflammation and down-regulating pro-inflammatory gene expression” (priority 2006, published 2008)
Where “and” joins values, the source holds several entries; their conditions need not be identical. Equal values may be shown once.

What was measured:
[1] = target: T1, COX-2 (Ovis aries, UniProt P79208); experiment: Colorimetric COX inhibitor screening assay, COX-2; format: biochemical, ovine
T1 construct: purchased Cayman Chemical Company
T1 sequence (P79208 17-603): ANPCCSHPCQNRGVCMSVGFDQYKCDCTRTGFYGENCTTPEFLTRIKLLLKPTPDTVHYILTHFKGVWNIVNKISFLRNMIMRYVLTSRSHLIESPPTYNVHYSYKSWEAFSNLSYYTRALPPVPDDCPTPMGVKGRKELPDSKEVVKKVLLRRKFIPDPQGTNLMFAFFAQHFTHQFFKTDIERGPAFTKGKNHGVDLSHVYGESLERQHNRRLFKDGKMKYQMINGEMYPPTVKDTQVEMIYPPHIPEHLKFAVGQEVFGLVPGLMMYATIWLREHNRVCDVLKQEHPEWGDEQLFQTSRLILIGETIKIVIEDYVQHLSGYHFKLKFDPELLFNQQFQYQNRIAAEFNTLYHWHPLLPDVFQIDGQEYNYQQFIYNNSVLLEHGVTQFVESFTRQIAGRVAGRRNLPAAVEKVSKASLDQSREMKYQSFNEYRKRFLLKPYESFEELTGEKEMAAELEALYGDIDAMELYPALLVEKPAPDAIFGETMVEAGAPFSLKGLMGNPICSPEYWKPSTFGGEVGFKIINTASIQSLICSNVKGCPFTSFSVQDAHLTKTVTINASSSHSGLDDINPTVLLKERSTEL
Protocol: An ovine COX inhibitor screening assay (Cayman Chemical Company, Ann Arbor, Mich.) was used to measure inhibition of purified COX-1 and COX-2. This assay measures the peroxidase component of cyclooxygenases colorimetrically by monitoring the appearance of oxidized N,N,N′,N′-tetramethyl-p-phenylenediamine (TMPD) at 590 nm. Tablets of Vioxx (rofecoxib; Merck & Co., Inc., Whitehouse Station, N.J.) were ground and dissolved in methanol (1 mg/mL) to use as a positive control. AL-1, leukomisin, and austricin were also dissolved in methanol at 1 mg/mL. The assay was performed following manufacturer instructions. Vioxx, vehicle (100% initial activity), or treatments were added to a 96-well plate along with 180 μL assay mixture provided by the manufacturer containing 150 μL assay buffer, 10 μL heme, and 10 μL enzyme (COX-1 or COX-2). A background correction row received no enzyme and 10 μL additional assay buffer. After 5 min incubation at room temp, 20 μL of a colorimetric substrate solution containing TMPD and 20 μL arachadonic acid diluted in assay buffer were added to the plate. The plate was incubated for 5 min and the absorbance was read at 590 nm using a microplate reader (Molecular Devices, Sunnyvale, Calif.). To calculate percent inhibition, average absorbance was calculated for each sample (n=3). The background blank well absorbance was subtracted from each sample.
[(100% Initial activity-Blank)−(Treatment-Blank)/(100% Initial activity-Blank)]*100

[2] = system: cotton pellet infiltrate and granuloma in rats; experiment: Cotton granuloma test; format: in vivo; conditions: 200 mg/kg oral
Protocol: Free access to standard rat chow and water was provided throughout the test. Three sterile cotton pellets (10 mg) were implanted hypodermically into the groin and abdominal area of rats under Nembutal (Sigma, St. Louis, Mo.) narcosis (40 mg/kg intraperitoneally). AL-1, aspirin (Sigma, St. Louis, Mo.), and vehicle control (5% ethanol) were administered by oral gavage one day before implantation, the day of implantation (1 hour before operation), and subsequently for six days after the surgery, once per day. On the seventh day after surgery, rats were euthanized by means of a large dose of Nembutal (70 mg/kg). Cotton pellets were removed and fresh weights were recorded. The cotton pellets were then were placed into an oven (60° C.) for 24 hours and weighed again.

[3] = system: carrageenan-induced rat paw edema; experiment: Carrageenan-induced rat paw edema; format: in vivo, Wistar rats; conditions: 200 mg/kg oral gavage, n = 5
Protocol: Groups of five adult male and female Wistar rats with body weights from 136 to 170 g were used for this study. Rats were housed five animals per cage in a room kept at 24-26° C. and fed ad libitum. Before the experiment began, rat paw sizes were recorded by measuring paw volume three times on each animal using a plethysmometer (Ugo Basile, Comerio VA, Italy). The values were averaged to give a baseline paw size value. To start the experiment, animals were given a subcutaneous injection of 1% carrageenan (100 μl; Sigma, St. Louis, Mo.) in the area of the back paw to induce an acute inflammatory reaction (paw edema). One hour after carrageenan injection, rats were orally gavaged with AL-1, aspirin, or vehicle control (5% ethanol). Paw size was measured at three hours and five hours after injection. The increase in paw edema at each time point was determined by comparison with paw volume measured pre-injection. Inhibition of edema was calculated by comparison with vehicle control at the same time point.

[4] = system: nitric oxide (NO) production from RAW macrophages; experiment: Griess assay for NO production by LPS-stimulated RAW macrophages; format: cell-based, murine; conditions: at 10 μM; positive control

SMILES	IC50 [1] [µM]	reduction of granuloma [2] [%]	reduction of infiltrate [2] [%]	granuloma (dry weight of pellet) ([2]; once per day, vehicle control 38 ± 7 mg) [mg]	infiltrate (wet weight of pellet) ([2]; once per day, vehicle control 139 ± 10 mg) [mg]	inhibition of paw edema vs vehicle control ([3]; 3 h after carrageenan)	inhibition of paw edema vs vehicle control ([3]; 5 h after carrageenan)	NO production, % of control [4]
CS(=O)(=O)c1ccc(C2=C(c3ccccc3)C(=O)OC2)cc1 [Vioxx, rofecoxib]	40							
CC(=O)Oc1ccccc1C(=O)O [aspirin]		44	34	21 ± 3	92 ± 12	53% and 53 ± 1 %	56% and 56 ± 1 %	69 % of control
